The source of these data is article PMC3674995, “Safety, Pharmacokinetic, and Efficacy Studies of Oral DB868 in a First Stage Vervet Monkey Model of Human African Trypanosomiasis” (PLoS Neglected Tropical Diseases, 2013).

The subject of series [1] is T. b. rhodesiense KETRI 2537. The experiment in a line: Efficacy in first stage HAT vervet monkey model. It is filed as in vivo. The method, then:
Monkeys that were deemed as treatment failures/relapses or developed severe adverse clinical signs as defined in the protocol (e.g., inability or reluctance to perch, less than ¼ of normal daily feed intake for 2–3 consecutive days) were immediately withdrawn from the study and humanely euthanized for post-mortem examination. These monkeys were euthanized by intravenous administration of 20% (w/v) pentobarbitone sodium solution (150 mg/kg body weight; Euthatal; Rhône-Mérieux, United Kingdom).

For series [2], the system named is T. b. brucei s427 trypanosomes. Also noted: method as in PMID 21402852. To be noted: 3.2 µM; cited from earlier work.

“Also recorded” adds a separate entry of the source.

On to `N=C(N)c1ccc(OCCCCCOc2ccc(C(=N)N)cc2)cc1` [Pentamidine, reference compound], for which the “Trypanosomes blood/CSF at EoT” value in series [1] (intramuscular 4 mg/kg×7 days from 7 DPI, monkeys 651, 541, 672) was “Pos and Neg”. Moreover, the Final efficacy assesment result in series [1] (intramuscular 4 mg/kg×7 days, monkeys 651, 541, 672) was “Not cured; also recorded: Cured”. Also, the “time to clearance of trypanosomes from peripheral blood” value in series [1] (monkey, in vivo, im, 4 mg/kg) came out at 2 days.
`N=C(N)c1ccc(-c2ccc(-c3ccc(C(=N)N)cc3)o2)cc1` [furamidine, 2,5-bis(4-amidinophenyl)furan, reference compound]: the “exposure required to kill trypanosomes in culture” value in series [2] was 1 h.
